Measured values reported in PMC7912796, “Design, Synthesis, Anticancer Activity, and Solid Lipid Nanoparticle Formulation of Indole- and Benzimidazole-Based Compounds as Pro-Apoptotic Agents Targeting Bcl-2 Protein” (Pharmaceuticals, 2021).

Legend:
[1] = system: MDA-MB-231/breast cancer cell line; assay: Cell cycle analysis, propidium iodide flow cytometry; format: cell-based, human; settings: 13 µM, 48 h
Source text: Using flow cytometry, apoptosis rate analysis was proceeded through staining the cell surface-translocating phosphatidylserine with Annexin-V fluorescent conjugate, the calcium-dependent phospholipid binding protein [32]. However, cell cycle analysis was achieved using propidium iodine fluorescent dye to stoichiometrically stain cell DNA contents allowing quantitation and identification of all cell phase rates; G0-G1, S, G2/M, and pre-G1 [33, 34]. […] For identifying the mode of cell death promoted by 8b within MDA-MB-231/breast cancer cells, apoptosis rate analysis was performed following 48 h exposure time. […] Moreover, the average proportion of Annexin-V stained positive cells (total apoptotic cells) elevated from 1.72% within untreated cells to 18.93% in treated ones (p < 0.001). […] The above provided findings are supported by the previous cell cycle analysis confirming the potentiality of 8b as promising anticancer agent.
Apoptotic assay and cell cycle analysis were proceeded according to previous literatures. […] Following incubation, MDA-MB-231 cells were trypsinized, harvested, and fixed according to information cited within Annexin® V-FITC Detection Kit (Cat.#: K101-25, BioVision^TM, Milpitas, CA, USA), for quantifying cell’s DNA contents being treated with 8b relative to control sample using propidium iodide stain (Cat.#: ab139418; Abcam^TM, Cambridge, MA, USA). […]

[2] = system: Bax/Bcl-2 gene expression ratio; assay: RT-PCR Bax/Bcl-2 gene expression ratio; format: cell-based, human; settings: 13 μM, 48 h, MDA-MB-231; control 1
Protocol: Dissection of the compound’s proapoptotic activity was proceeded through gene expression analysis for key genes, controlling apoptosis pathway, as well as protein level determination. Following 8b treatment for 48 h, alterations within MDA-MB-231/breast cancer cell expression of Bcl-2, Bax, caspase-3, -8, and -9 genes, as well as cytochrome c and class-III β-tubulin proteins levels were determined using real-time polymerase chain reaction (RT-PCR) or ELISA technique, respectively. Typically, Bcl-2, Bax, caspases, and cytochrome c proteins contributes within the regulation of apoptotic signaling. Acting as apoptotic activator (Bax) or inhibitor (Bcl-2), the Bcl-2 family proteins play their significant role in apoptosis. The caspases family are cysteine proteases being classified as either executioners; caspase-3, -6, or -7 or initiators; caspase-8 and -9 [36]. […]
Quantitative Real-time PCR was operated on Rotor-Gene Q® PCR system as a reader (Cat.#: 204774; Qiagen^TM, Milan, Italy) via GenElute® RNA extraction/SIGMA PCR kit (Cat.#: REI10; Qiagen^TM, Milan, Italy)^86. […] RNA purity was assessed via Nanodrop® 2000/2000c UV-Vis spectrophotometer (Thermo-Scientific^TM, Bilbao, Spain). […] Obtained results were expressed within Cycle threshold (Ct) values, while relative quantitation of each measured gene was assessed based on ΔΔCt calculations as represented in Table 5 [79].

How did the “cell population at pre-G1 stage” value [1] turn out when `CCCc1ccc(-c2nn(-c3ccccc3)cc2C=NNC(=O)c2cc3ccccc3[nH]2)cc1` [Compound 8b, N′-((1-phenyl-3-(4-propylphenyl)-1H-pyrazol-4-yl)methylene)-1H-indole-2-carbohydrazide] was run?
Its value is 1.72%.

What about the “cell population at G2/M stage” value ([1]; untreated 6.15%) of the same molecule?
The value was 25.32%.

And the Bax/Bcl expression ratio [2]?
Its Bax/Bcl expression ratio is 21.88.
